Assay results taken from ChEMBL document CHEMBL5726104, “4,6-disubstituted aminopyrimidine derivatives have anti-HIV activity” (2017).

Biological target: Cyclin-dependent kinase 9 (Homo sapiens, UniProt P50750)
Experiment: Fluorescent Polarization Assay: The activity of the compounds described in the present invention can be determined by measuring the phosphorylation of a fluorescently-labeled peptide by human CDK9/CyclinT kinase complex by fluorescent polarization using a commercially available IMAP Screening Express Assay Kit (Molecular devices).Test compounds were diluted in 100% DMSO to 5 mM stock concentration, then further dilutions were made in H2O or 100% DMSO to desirable concentrations. Each reaction consisted of 5 nM enzyme: CDK9/CyclinT (Proqinase cat#0371-0345-1), 400 nM TAMRA-Rbtide (synthetic 15-mer peptide derived from human retinoblastoma tumor suppressor protein labeled with TAMRA dye, Genecust Europe), 12 μM ATP (=Kmapp, Sigma-Aldrich) and kinase buffer: 20 mM MOPS pH 7 (Sigma-Aldrich), 1 mM DTT (Sigma-Aldrich), 10 mM MgCl2 (Sigma-Aldrich), 0.01% Tween 20 (Sigma-Aldrich).For each reaction, 4 or 6 μl containing TAMRA-Rbtide, ATP and kianse buffer were combined with 2 μl diluted compound in H2O or 0.028 μl compound in 100% DMSO. The kinase reaction was started by the addition of 2 μl diluted enzyme.

Chain of Cyclin-dependent kinase 9 (P50750 whole entry): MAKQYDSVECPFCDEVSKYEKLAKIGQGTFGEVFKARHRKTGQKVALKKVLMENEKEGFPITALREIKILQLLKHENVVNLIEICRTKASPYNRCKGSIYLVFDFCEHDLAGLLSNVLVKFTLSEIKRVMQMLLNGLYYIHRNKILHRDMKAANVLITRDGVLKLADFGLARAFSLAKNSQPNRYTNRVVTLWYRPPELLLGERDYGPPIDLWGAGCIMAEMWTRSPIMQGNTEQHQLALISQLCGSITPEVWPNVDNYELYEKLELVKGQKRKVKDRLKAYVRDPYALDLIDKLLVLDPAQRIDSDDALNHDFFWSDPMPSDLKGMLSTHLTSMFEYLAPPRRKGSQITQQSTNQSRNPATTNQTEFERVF

Row | IC50 [µM] | Compound
1 | > 10 | COc1cccc(-c2cc(Nc3ccc(OC)c([N+](=O)[O-])c3)ncn2)c1
2 | < 10 | COc1ccc(Nc2cc(-c3ccccc3OCc3ccccc3)ncn2)cc1[N+](=O)[O-]
3 | < 0.1 | COc1ccc(Nc2cc(-c3ccccc3OC)ncn2)cc1NS(C)(=O)=O

Row | Compound | IC50 [µM]
4 | COc1ccccc1-c1cc(Nc2ccc(N3CCN(C)CC3)c(CO)c2)ncn1 | < 0.1
